Experiment [1] is filed under the species Canis familiaris. Put plainly: In vitro activity in isolated canine cardiac Purkinje fibers given as 20 percent increase or decrease in action potential duration. Type of experiment: functional, Canis lupus familiaris, Purkinje fiber.
The species named for experiment [2] is Canis familiaris. Kind of experiment: In vitro activity in isolated canine cardiac ventricular muscle tissue given as 20 percent increase or decrease in FRP (functional refractory period). Details: species or system Canis lupus familiaris.
The species entered for experiment [3] is Canis familiaris. Kind of experiment: In vitro activity in isolated canine cardiac Purkinje fibers given as maximum change in APD95 from control value at 100 uM of concentration. Type of experiment: functional, Canis lupus familiaris, Purkinje fiber.
The species entered for experiment [4] is Canis familiaris. Kind of experiment: In vitro electrophysiological activity in isolated canine cardiac ventricular muscle tissue given as maximum change in FRP from control value at 100 uM concentration. Type of experiment: functional, Canis lupus familiaris.
The species entered for experiment [5] is Canis familiaris. Put plainly: In vitro electrophysiological activity in isolated canine cardiac ventricular muscle tissue given as maximum change in FRP from control value at 100 uM concentration; NR = Not reached. The note with it: Canis lupus familiaris. Type of experiment: functional.
The species named for experiment [6] is Canis familiaris. Kind of experiment: The compound was evaluated for the mean effective dose for antiarrhythmic efficacy in PES model. Type of experiment: functional. The settings on record: Canis lupus familiaris, Heart; read-out: MED.
For experiment [7], the species on record is Canis familiaris. Kind of experiment: The compound was evaluated for the change in blood pressure at MED for 0.1-30 dose range in PES model. Type of experiment: functional, Canis lupus familiaris.
Experiment [8] deals with Canis familiaris. Put plainly: The compound was evaluated the change in blood pressure at 10 mg/kg active dose. Type of experiment: functional, Canis lupus familiaris.
In experiment [9] the test system is Canis familiaris. Put plainly: The compound was evaluated the change in heart rate at 10 mg/kg active dose. Type of experiment: functional, Canis lupus familiaris.
The species entered for experiment [10] is Canis familiaris. Put plainly: The compound was evaluated for the change in heart rate at MED for 0.1-30 dose range in PES model. Type of experiment: functional, Canis lupus familiaris.
The subject of experiment [11] is Canis familiaris. Kind of experiment: The compound was evaluated the change in functional refractory period at 10 mg/kg active dose. On the set-up: species or system Canis lupus familiaris.
The species entered for experiment [12] is Canis familiaris. Put plainly: The compound was evaluated for the change in blood pressure at MED for 0.3-30 dose range in PES model. Type of experiment: functional, Canis lupus familiaris.
Experiment [13] is filed under the species Canis familiaris. Put plainly: The compound was evaluated for the change in heart rate at MED for 0.3-30 dose range in PES model. Type of experiment: functional, Canis lupus familiaris.
For experiment [14], the species on record is Canis familiaris. Put plainly: In vitro activity in isolated canine cardiac Purkinje fibers given as maximum change in APD95 from control value at 10 uM of concentration. Type of experiment: functional, Canis lupus familiaris, Purkinje fiber.
The species named for experiment [15] is Canis familiaris. Kind of experiment: The compound was evaluated for the change in blood pressure at MED for 0.1-10 dose range in PES model. Type of experiment: functional, Canis lupus familiaris.
For experiment [16], the species on record is Canis familiaris. Kind of experiment: The compound was evaluated for the change in heart rate at MED for 0.1-10 dose range in PES model. Type of experiment: functional, Canis lupus familiaris.
For experiment [17], the species on record is Canis familiaris. Kind of experiment: The compound was evaluated for the change in heart rate at MED for 0.3-10 dose range in PES model. Type of experiment: functional, Canis lupus familiaris.
The species entered for experiment [18] is Canis familiaris. Kind of experiment: The compound was evaluated for the change in blood pressure at MED for 0.3-10 dose range in PES model. Type of experiment: functional, Canis lupus familiaris.

Each structure is given as a SMILES string. “And” between values parts separate entries of the source, which are not always exact repeats. Identical values can stand only once.

With `CC(C(O)c1ccc(NS(C)(=O)=O)cc1)n1cc[n+](C)c1.[Cl-]` (configuration not stated), the “C20 APD95” value in the experiment listed under Canis familiaris [1] was 4.2 µM. The “C20 FRP” value in the experiment filed under Canis familiaris [2] was found to be 11.2 µM. Also, the APD95 in the experiment filed under Canis familiaris [3] is reported as 36%. Besides, the FRP in the experiment filed under Canis familiaris [4] was determined as 31%.

For the molecule `CC(C(=O)c1ccc(NS(C)(=O)=O)cc1)n1cc[n+](C)c1.[Cl-]` (configuration not stated), the “C20 APD95” value in the experiment filed under Canis familiaris [1] stood at 3 µM. Besides, the “C20 FRP” value in the experiment filed under Canis familiaris [2] turned out to be 7.7 µM. For the same molecule, in the experiment listed under Canis familiaris [3], the APD95 is on record as 65%. This molecule displayed an FRP in the experiment listed under Canis familiaris [4] of 22%.

Take `Cc1n2c(c[n+]1C)C(c1ccc(NS(C)(=O)=O)cc1)CCC2.[I-]` (configuration not stated): in the experiment listed under Canis familiaris [1], the “C20 APD95” value is 46.6 µM. For the same molecule, the FRP result in the experiment filed under Canis familiaris [5] was “Not reached”. This molecule also showed an APD95 in the experiment filed under Canis familiaris [3] of 27%.

With `Cn1cc[n+](C)c1C(O)c1ccc(NS(C)(=O)=O)cc1.[I-]` (configuration not stated), the “C20 APD95” value in the experiment listed under Canis familiaris [1] turned out to be 20.7 µM. The molecule also registered an APD95 in the experiment filed under Canis familiaris [3] of 37%. In the experiment filed under Canis familiaris [4], this molecule registered an FRP of 17%.

On to `CC1=NCCN1CC(=O)c1ccc(NS(C)(=O)=O)cc1`, for which the “C20 APD95” value in the experiment listed under Canis familiaris [1] was found to be 1.3 µM. The “C20 FRP” value in the experiment listed under Canis familiaris [2] worked out at 6.3 µM. In the experiment listed under Canis familiaris [3], this molecule yielded an APD95 of 74%. The FRP in the experiment filed under Canis familiaris [4] was 38%.

For the molecule `C[n+]1ccn(CC(C)(O)c2ccc(NS(C)(=O)=O)cc2)c1.[Cl-]` (configuration not stated), the “C20 APD95” value in the experiment listed under Canis familiaris [1] came out at 1.5 µM. Moreover, the “C20 FRP” value in the experiment listed under Canis familiaris [2] stood at 24.3 µM. Moreover, in the experiment filed under Canis familiaris [3], the APD95 amounted to 71%. Besides, in the experiment filed under Canis familiaris [4], the FRP is listed as 29%.

As for `CC(C)NCC(O)c1ccc(NS(C)(=O)=O)cc1` (configuration not stated) [SOTALOL], in the experiment listed under Canis familiaris [6], the minimal effective dose was 1.4 mg/kg. Also, the BP in the experiment listed under Canis familiaris [7] was -23%; with Canis familiaris [8], 8%. Moreover, the “C20 APD95” value in the experiment filed under Canis familiaris [1] is 14.4 µM. In the experiment listed under Canis familiaris [2], the “C20 FRP” value stood at 24.7 µM. For the same molecule, the HR in the experiment on Canis familiaris [9] is recorded as -11%; in the experiment listed under Canis familiaris [10], -23%. Moreover, in the experiment filed under Canis familiaris [3], the APD95 worked out at 48%. Further, the FRP in the experiment filed under Canis familiaris [4] was 23%; in the experiment with Canis familiaris [11] it was 16%.

Take `CC1=NCCN1CC(O)c1ccc(NS(C)(=O)=O)cc1.Cl` (configuration not stated): the minimal effective dose in the experiment filed under Canis familiaris [6] was found to be 2 mg/kg. Besides, the BP in the experiment filed under Canis familiaris [12] is recorded as -1%; with Canis familiaris [8], 2%. For the same molecule, the “C20 APD95” value in the experiment filed under Canis familiaris [1] came to 0.6 µM. In the experiment listed under Canis familiaris [2], the “C20 FRP” value was 1.1 µM and 1.9 µM. For the same molecule, the HR in the experiment with Canis familiaris [9] is given as -23%; in the experiment filed under Canis familiaris [13] it was -21%. In the experiment filed under Canis familiaris [3], this molecule registered an APD95 of 63%. Further, the FRP is 42% and 38% in the experiment filed under Canis familiaris [4]; 22% in the experiment with Canis familiaris [11].

For `C[n+]1ccn(/C=C/c2ccc(O)cc2)c1.[Br-]`, in the experiment listed under Canis familiaris [1], the “C20 APD95” value was 10.2 µM. Besides, the APD95 in the experiment listed under Canis familiaris [3] is 27%; in the experiment listed under Canis familiaris [14] it was 23% and 20%.

Take `CCCCCCC[N+](CC)(CC)CCCCc1ccc(Cl)cc1` [CLOFILIUM]: in the experiment listed under Canis familiaris [6], the minimal effective dose was determined as 0.63 mg/kg. The BP in the experiment filed under Canis familiaris [15] was 2%; in the experiment with Canis familiaris [8] it was -4%. Further, in the experiment filed under Canis familiaris [1], the “C20 APD95” value was found to be 0.26 µM. Also, the HR in the experiment filed under Canis familiaris [16] was -12%; with Canis familiaris [9], -18%. Further, the FRP in the experiment listed under Canis familiaris [4] was found to be 7%; in the experiment on Canis familiaris [11], 22%. For the same molecule, in the experiment listed under Canis familiaris [14], the APD95 is recorded as 39%.

Consider `Cc1n2c(c[n+]1C)C(c1ccc(NS(C)(=O)=O)cc1)=CCC2.[I-]`, for which the “C20 APD95” value in the experiment listed under Canis familiaris [1] is 2.8 µM. In the experiment filed under Canis familiaris [2], the “C20 FRP” value is 2.9 µM. Moreover, the APD95 in the experiment listed under Canis familiaris [3] was determined as 38%. Moreover, the FRP in the experiment listed under Canis familiaris [4] is 40%.

Turning to `C[n+]1ccn(CCc2ccc(O)cc2)c1.[Cl-]`, the “C20 APD95” value in the experiment filed under Canis familiaris [1] stood at 6.2 µM. Also, in the experiment listed under Canis familiaris [2], the “C20 FRP” value stood at 50.1 µM. Moreover, the values for the APD95 in the experiment filed under Canis familiaris [3] and in the experiment listed under Canis familiaris [14] were 20% and 23%, respectively. Also, the FRP in the experiment listed under Canis familiaris [4] was found to be 7%.

On to `CS(=O)(=O)Nc1ccc(C(=O)C[n+]2ccsc2)cc1.[Cl-]`, for which the “C20 APD95” value in the experiment filed under Canis familiaris [1] stood at 3.1 µM. Moreover, the “C20 FRP” value in the experiment listed under Canis familiaris [2] was determined as 10 µM. Besides, the APD95 in the experiment filed under Canis familiaris [3] worked out at 80%. Also, the FRP in the experiment filed under Canis familiaris [4] was determined as 17%.

Regarding `C[n+]1ccn(CC(O)c2ccc(NS(C)(=O)=O)cc2)c1.[Cl-]` (configuration not stated), in the experiment filed under Canis familiaris [6], the minimal effective dose worked out at 6.5 mg/kg. In addition, the “C20 APD95” value in the experiment filed under Canis familiaris [1] worked out at 1.6 µM. Also, the BP in the experiment on Canis familiaris [8] is 5%; in the experiment listed under Canis familiaris [18], 0%. Moreover, the “C20 FRP” value in the experiment listed under Canis familiaris [2] stood at 5.9 µM. Moreover, the HR with Canis familiaris [9] was -10%; in the experiment filed under Canis familiaris [17] it was -23%. This molecule gave an APD95 in the experiment filed under Canis familiaris [3] of 50%. Moreover, the FRP in the experiment filed under Canis familiaris [4] worked out at 31%; in the experiment with Canis familiaris [11] it was 21%.

Values taken from ChEMBL document CHEMBL1123572, “Synthesis and antiarrhythmic activity of novel 3-alkyl-1-[omega-[4-[(alkylsulfonyl)amino]phenyl]-omega- hydroxyalkyl]-1H-imidazolium salts and related compounds. 2” (1987).
